# Measured values: patent publication US8357413B2, “Process for the disinfection and/or preservation of harvested plant material” (Solvay (Societe Anonyme), priority 2003, dated 2013)
# Test system: aerobic micro-organism activity
# Experiment: Example 4: aerobic stability of forage (temperature rise in insulated boxes)
# Protocol: The treatments shown in examples 1 and 2 were also evaluated for their aerobic stability i.e. under conditions representing opening of the clamp to use the forage as feed thus allowing air to enter the clamp. In this case comparisons were made with untreated forage as in examples 1 and 2 and also with forage treated with a typical acid product, formic acid (85% w/w) applied at 2.5 liters per tonne of grass. 750 g of the forages were stored in insulated boxes placed in a controlled environment at 20-22° C. A temperature probe was inserted into each box linked to a data logger to monitor temperature changes hourly over a 6 day period.
smiles,measurement,setting,value
"O=CO [Formic Acid, formic acid]",Temperature Day 0,"750 g forage in insulated boxes at 20-22° C., Day 0",17.8 °C
same,Temperature Day 6,"750 g forage in insulated boxes at 20-22° C., Day 6",20.5 °C
same,Temperature increase,Day 0 to Day 6,+2.7 °C
